We go through 7 molecules from paper PMC9159852, “Synthesis, Structure, and Biologic Activity of Some Copper, Nickel, Cobalt, and Zinc Complexes with 2-Formylpyridine N^4-Allylthiosemicarbazone” (Bioinorganic Chemistry and Applications, 2022).

Molecules are shown by their SMILES. Values after ≈ are worked out from the molar mass of the structure shown. Where two headings read alike, the source gives them in different places. Some results are limits rather than exact numbers.

For series [1], the system named is Escherichia coli (ATCC 25922). Details: method as in PMID 25708540. Particulars: E. coli (G-), reference drug; cited from earlier work.
For series [2], the system named is Staphylococcus aureus (ATCC 25923). Also on record: method as in PMID 25708540. The conditions noted are these: S. aureus (G+), reference drug; cited from earlier work.
In series [3] the test system is Candida albicans (ATCC 10231). Also on record: method as in PMID 25708540. The conditions noted are these: C. albicans, reference drug; cited from earlier work.
On the set-up of series [4]: method as in doi:10.1134/s1070363221010114. Particulars: standard antioxidant; read-out: IC50 toward ABTS•+ radical cation; cited from earlier work.
For series [5], the system named is Escherichia coli (ATCC 25922). Nature of the series: Antibacterial activity, serial dilutions in liquid broth, E. coli. The series is classed as cell-based. Particulars: E. coli (G-). The procedure:
(§1) Antibacterial and antifungal properties of the studied substances were determined on a series of standard strains of Gram-positive microorganisms (Staphylococcus aureus (ATCC 25923)), Gram-negative microorganisms (Escherichia coli (ATCC 25922)), and fungi (Candida albicans (ATCC 10231)) using the method of serial dilutions in liquid broth. Stock solutions of the studied compounds as well as the reference compounds (furacillinum and nystatin) were prepared by dissolving 10 mg of the corresponding compound in 1 mL of DMSO. After that, the starting solutions (1 mg/mL) were prepared by tenfold dilution of the stock solution with nutrition medium (2% of peptonate bullion). The next dilutions were prepared by serial double dilution with the nutrition medium.

The test system of series [6] is Staphylococcus aureus (ATCC 25923). Nature of the series: Antibacterial activity, serial dilutions in liquid broth, S. aureus. The conditions noted are these: S. aureus (G+). The series is classed as cell-based. The procedure: as §1
Series [7] concerns Candida albicans (ATCC 10231). Nature of the series: Antifungal activity, serial dilutions in liquid broth, C. albicans. The series is classed as cell-based. Here is the method: as §1
A short description of series [8]: Antiradical activity, ABTS•+ method. The conditions noted are these: read-out: IC50 toward ABTS•+ radical cation. The procedure: The ABTS^•+ method was applied for the determination of antiradical activity of the studied substances. Standard solutions of ABTS^•+ radical cations and tested substances as well as the conditions of spectrophotometric measurements and calculations of inhibition were made as described. The 10-mM stock solutions of the studied compounds as well as the reference compound (trolox) were prepared by dissolving 10 μmol of the corresponding compound in 1 mL of DMSO. The 1, 10, 100, and 1000 μM solutions were prepared by the dilution of stock solutions with DMSO. After that, 20 μL of each tested compound solutions was transferred in a 96-well microtiter plate, and 180 μL of ABTS^•+ working solution was added to receive solutions with final concentrations of tested compounds 0.1, 1, 10, and 100, respectively.

Series [9] relates to human muscle rhabdomyosarcoma (RD) cell line. Kind of series: Antiproliferative activity (MTS and Resazurin assays), RD. The series is classed as cell-based. Particulars: for IC50: RD. The procedure: (§2) The antiproliferative activity of the studied substances was determined toward a series of cancer cell lines (HL-60 (ATCC CCL-240), BxPC-3 (ATCC CRL-1687), HeLa (ATCC CCL-2), RD (ATCC CCL-136)), and a normal cell line (MDCK (ATCC CCL-34)). These cell lines were cultured in accordance with the previously described method. Determination of the number of viable cells after cultivation in the presence of various concentrations of the studied substances was carried out by the MTS and Resazurin assays according to the previously described method. The 10-mM stock solutions of the studied compounds as well as the reference compound (doxorubicin) were prepared by dissolving 10 μmol of the corresponding compound in 1 mL of DMSO. The 0.1, 1, 10, and 100 μM solutions were prepared by dilution of the stock solutions with the corresponding medium and used for the study of antiproliferative activity.

For series [10], the system named is human epithelial pancreatic adenocarcinoma (BxPC-3) cell line. Kind of series: Antiproliferative activity (MTS and Resazurin assays), BxPC-3. The series is classed as cell-based. Particulars: for IC50: BxPC-3; for SI (selectivity index): IC50(MDCK)/IC50(BxPC-3). The procedure:
as §2

Series [11] has as its system human cervical epithelial (HeLa) cell line. Kind of series: Antiproliferative activity (MTS and Resazurin assays), HeLa. Type of series: cell-based. The conditions noted are these: for IC50: HeLa. Here is the method:
as §2

For series [12], the system named is human leukemia HL-60 cell line. Nature of the series: Antiproliferative activity (MTS and Resazurin assays), HL-60. The series is classed as cell-based. Particulars: for IC50: HL-60, Table 3. The procedure:
as §2

For the next series, the system named is Daphnia magna. Nature of the series: Acute toxicity assay against Daphnia magna. Particulars: 24 h exposure; for LC50: Daphnia magna. Here is the method:
The general toxicity of the tested compounds was evaluated using Daphnia magna (Straus, 1820). Daphnia magna was originated from a culture maintained parthenogenetically at the Institute of Zoology (Laboratory of Systematics and Molecular Phylogeny).
The test design was based on ISO 6341 : 2012. The test-organisms Daphnia magna Straus were fed with Chlorella vulgaris. These unicellular algae were grown using aseptic technology to exclude contamination of the culture by bacteria, algae or protozoa. Chlorella vulgaris were cultivated in Prat's growth medium containing KNO3 (1 μM), MgSO4·7H2O (40 μM), K2HPO4·3H2O (400 μM), FeCl3·6H2O (3.6 μM) in H2O distilled (adjusted the pH to 7.0, autoclaved and stored at 5°C).
D. magna was maintained in aerated aqueous straw infusion growth media supplemented with CaCl2 ([…]), NaHCO3 (2.59 g/L), KCl (0.23 g/L), and MgSO4, 7H2O (4.93 g/L). (pH∼7.5 ± 0.2; O2 ≥ 6.0 mg/L).
Juveniles were selected according to their size and kept in fresh medium for 24 h. D. magna was cultured in Costar® 24-well culture clear sterile multiple well plates covered by a lid to prevent the possibility of contamination and evaporation but at the same time to allow gaseous exchange between air and culture medium. Each well contained 10 daphnids in 1000 μL final volume of each dilution of the tested compounds.
The bioassay was then repeated at the concentrations ranging from 0.1 to 100 μM (0.1, 1, 10, and 100 μM) in order to determine LC50 for each compound, including doxorubicin (the positive control). Aqueous straw infusion growth media was used to dilute the stock solutions to the required concentrations. […] A 0.1% solution of DMSO in aerated medium (pH∼7.5 ± 0.2; O2 ≥ 6.0 mg/L) was used as a negative control. Throughout the experiment, the juvenile daphnids were incubated at 22 ± 2 °C, using a 16 h/8 h light/dark cycle (500–1000 lx). The mobility (viability) of the test organisms was observed after the 24-h exposure. The experiment was performed in triplicate.
The percentage of viability (V (%)) of Daphnia magna was calculated according to the formula:(1) V%=Nsample/Ncontrol×100.
N - Number of viability of Daphnia magna.
The compounds median lethal concentration that kills 50% of the juvenile daphnids (LC50) values were calculated from the dose-response equation determined by the least squares fit method.

Series [13] relates to normal kidney epithelial (MDCK) cell line. Kind of series: Antiproliferative activity (MTS and Resazurin assays), MDCK normal cell line. The series is classed as cell-based. The procedure: as §2

Regarding `C=CCNC(=S)NN=Cc1cccnc1`, the melting point fell in the range of 180 to 182 °C.

Turning to `C=CCNC(=S)NN=Cc1ccncc1`, the melting point lay in the range of 163 to 165 °C.

Turning to `NC(=O)N/N=C/c1ccc([N+](=O)[O-])o1` [Furacillinum, furacillinum], the MBC is 37.5 µg/mL (≈ 189 µM) in [1] and 9.3 µg/mL (≈ 46.9 µM) in series [2]. In addition, the figures for the minimum inhibitory concentration (MIC) in series [1] and in series [2] were 18.5 µg/mL (≈ 93.4 µM) and 9.3 µg/mL (≈ 46.9 µM), respectively.

With `C[C@@H]1[C@H](O)[C@@H](C)/C=C/C=C/CC/C=C/C=C/C=C/C=C/C(O[C@H]2O[C@H](C)[C@@H](O)[C@H](N)[C@@H]2O)CC2O[C@](O)(CC(O)C(O)CCC(O)CC(O)CC(O)CC(=O)O[C@H]1C)CC(O)C2C(=O)O` (stereo partly drawn) [Nystatin, nystatin], in series [3], the MFC is 80 µg/mL (≈ 86.4 µM) and the minimal inhibitory concentration (MIC) was 80 µg/mL (≈ 86.4 µM).

`Cc1c(C)c2c(c(C)c1O)CCC(C)(C(=O)O)O2` (stereo not drawn) [Trolox, trolox]: the concentration for half-maximal inhibition (IC50) in series [4] is 33 ± 0.7 µM.

On to `C=CCNC(=S)NN=Cc1ccccn1.C=CCNC(=S)NN=Cc1ccccn1.O.[Cl-].[Cl-].[Ni+2]` [compound 5, [Ni(HL)2]Cl2·H2O], for which the MIC was found to be 1000 µg/mL in [5], 15.6 µg/mL in series [6] and 500 µg/mL in series [7]. Moreover, in series [6], the minimal bactericidal concentration (MBC) was 31.3 µg/mL. Moreover, the IC50 in series [8] was 8.6 ± 0.1 µM; in series [9] it was 2.9 ± 0.4 µM; in [10] it was 3.6 ± 0.9 µM; in [11], more than 100 µM; in series [12] it was 0.09 ± 0.01 µM; in series [13], more than 100 µM. Moreover, the “SI (selectivity index)” value in series [9] (IC50(MDCK)/IC50(RD)) is on record as more than 34; in [10], more than 27; in series [12] (IC50(MDCK)/IC50(HL-60)), more than 1000. For the same molecule, the “Inhibition of cell proliferation, (%)” value was 54.5 ± 1.1% in series [12] (HL-60, 0.1 μM); 94.9 ± 0.7% in series [12] (HL-60, 1 μM); 108.5 ± 0.5% in [12] (HL-60, 10 μM). The “V, (%) percentage of viability of Daphnia magna” value with Daphnia magna (0.1 μM) was determined as 102.6 ± 0.0%; in the series with Daphnia magna (1 μM) it was 102.6 ± 0.0%; in the series on Daphnia magna (10 μM), 97.4 ± 7.3%; in the series with Daphnia magna (100 μM) it was 87.2 ± 7.3%. In the series with Daphnia magna, this molecule displayed a median lethal concentration (LC50) of more than 100 µM. The “Effect on growth and proliferation of normal MDCK cell line (in words)” value in series [13] was “practically do not affect the growth and proliferation”.

Turning to `C=CCNC([S-])=NN=Cc1ccccn1.C=CCNC([S-])=NN=Cc1ccccn1.[Cl-].[Co+3]` [compound 6, [Co(L)2]Cl], the MBC in series [5] came to 500 µg/mL; in series [6], 125 µg/mL. For the same molecule, the figures for the minimum inhibitory concentration (MIC) in [5], in series [6] and in series [7] were 250 µg/mL, 62.5 µg/mL and 62.5 µg/mL, respectively. In series [7], this molecule yielded a minimal fungicidal concentration (MFC) of 250 µg/mL. For the same molecule, the IC50 in series [8] is more than 100 µM; in [9] it was more than 100 µM; in [10], 4.1 ± 0.5 µM; in series [11], 2.5 ± 0.5 µM; in [12], more than 10 µM; in [13] it was more than 100 µM. The “SI (selectivity index)” value in [10] is on record as more than 24; in [11] (IC50(MDCK)/IC50(HeLa)), more than 40. The “Inhibition of cell proliferation, (%)” value in series [12] (HL-60, 0.1 μM) is 4.1 ± 0.3%; in series [12] (HL-60, 1 μM), 6.9 ± 1.7%; in series [12] (HL-60, 10 μM), 24.1 ± 0.6%. Besides, the “V, (%) percentage of viability of Daphnia magna” value turned out to be 97.4 ± 7.3% in the series with Daphnia magna (0.1 μM), 97.4 ± 7.3% in the series on Daphnia magna (1 μM), 92.3 ± 0.0% in the series with Daphnia magna (10 μM) and 35.9 ± 7.3% in the series with Daphnia magna (100 μM). Moreover, the 50% lethal concentration (LC50) in the series with Daphnia magna was 65.4 ± 11.8 µM. In series [13], the “Effect on growth and proliferation of normal MDCK cell line (in words)” value is “practically do not affect the growth and proliferation”.
